Data taken from patent publication US7902201B2, “Isoxazolo-pyrazine derivatives” (Hoffmann-La Roche Inc., priority 2007, dated 2011).

Molecular target: T1, GABA A receptors containing the α5 subunit (α5β3γ2) (Homo sapiens, UniProt P18507+P31644)
T1 construct: expressed in transfected cells; host or cells: HEK293 (transiently transfected); membranes prepared from cell pellets
Test: [3H]flumazenil competition binding assay, human GABA A receptor (hKi)
Settings: human receptor transiently transfected in HEK293 cells, means of two determinations
Description: The affinity of compounds at GABA A receptor subtypes was measured by competition for [3H]flumazenil (85 Ci/mmol; Roche) binding to HEK293 cells expressing rat (stably transfected) or human (transiently transfected) receptors of composition α1β3γ2, α2β3γ2, α3β3γ2 and α5β3γ2.
Cell pellets were suspended in Krebs-tris buffer (4.8 mM KCl, 1.2 mM CaCl2, 1.2 mM MgCl2, 120 mM NaCl, 15 mM Tris; pH 7.5; binding assay buffer), homogenized by polytron for ca. 20 sec on ice and centrifuged for 60 min at 4° C. (50000 g; Sorvall, rotor: SM24=20000 rpm). The cell pellets were resuspended in Krebs-tris buffer and homogenized by polytron for ca. 15 sec on ice. Protein was measured (Bradford method, Bio-Rad) and aliquots of 1 mL were prepared and stored at −80° C.
Radioligand binding assays were carried out in a volume of 200 μL (96-well plates) which contained 100 μL of cell membranes, [3H]flumazenil at a concentration of 1 nM for α1, α2, α3 subunits and 0.5 nM for α5 subunits and the test compound in the range of […]. Nonspecific binding was defined by 10^−5 M diazepam and typically represented less than 5% of the total binding. Assays were incubated to equilibrium for 1 hour at. 4° C. and harvested onto GF/C uni-filters (Packard) by filtration using a Packard harvester and washing with ice-cold wash buffer (50 mM Tris; pH 7.5). After drying, filter-retained radioactivity was detected by liquid scintillation counting. Ki values were calculated using Excel-Fit (Microsoft) and are the means of two determinations.

| Ki | Compound |
| --- | --- |
| 29 nM | COC(=O)c1cnc(OCc2c(-c3ccccc3)noc2C)cn1 [Example 1, 5-(5-Methyl-3-phenyl-isoxazol-4-ylmethoxy)-pyrazine-2-carboxylic acid methyl ester] |
| 3.1 nM | Cc1onc(-c2ccccc2)c1COc1cnc(C(=O)NCC2CC2)cn1 [Example 2, 5-(5-Methyl-3-phenyl-isoxazol-4-ylmethoxy)-pyrazine-2-carboxylic acid cyclopropylmethyl-amide] |
| 1.2 nM | Cc1onc(-c2ccccc2)c1COc1cnc(C(=O)NC(C)C)cn1 [Example 3, 5-(5-Methyl-3-phenyl-isoxazol-4-ylmethoxy)-pyrazine-2-carboxylic acid isopropylamide] |
| 10.8 nM | Cc1onc(-c2ccccc2)c1COc1cnc(C(=O)NC(C)(C)C)cn1 [Example 4, 5-(5-Methyl-3-phenyl-isoxazol-4-ylmethoxy)-pyrazine-2-carboxylic acid tert-butylamide] |
| 1.9 nM | Cc1onc(-c2ccccc2)c1COc1cnc(C(=O)NC2CC2)cn1 [Example 5, 5-(5-Methyl-3-phenyl-isoxazol-4-ylmethoxy)-pyrazine-2-carboxylic acid cyclopropylamide] |
| 1.2 nM | Cc1onc(-c2ccccc2)c1COc1cnc(C(=O)NC2CCOCC2)cn1 [Example 6, 5-(5-Methyl-3-phenyl-isoxazol-4-ylmethoxy)-pyrazine-2-carboxylic acid (tetrahydro-pyran-4-yl)-amide] |
| 10.6 nM | Cc1onc(-c2ccccc2)c1COc1cnc(C(=O)NC2CCC(F)(F)CC2)cn1 [Example 7, 5-(5-Methyl-3-phenyl-isoxazol-4-ylmethoxy)-pyrazine-2-carboxylic acid (4,4-difluoro-cyclohexyl)-amide] |
| 7.4 nM | Cc1onc(-c2ccccc2)c1COc1cnc2ccccc2n1 [Example 8, 2-(5-Methyl-3-phenyl-isoxazol-4-ylmethoxy)-quinoxaline] |
| 9.6 nM | Cc1onc(-c2ccccc2)c1CNc1cnc(C(=O)NC(C)C)cn1 [Example 9, 5-[(5-Methyl-3-phenyl-isoxazol-4-ylmethyl)-amino]-pyrazine-2-carboxylic acid isopropylamide] |
| 0.3 nM | Cc1onc(-c2ccc(F)cn2)c1COc1cnc(C(=O)NC2CCOCC2)cn1 [Example 12, 5-[3-(5-Fluoro-pyridin-2-yl)-5-methyl-isoxazol-4-ylmethoxy]-pyrazine-2-carboxylic acid (tetrahydro-pyran-4-yl)-amide] |
| 24 nM | O=C(NCC(F)(F)F)c1cnc(OCc2conc2-c2ccc(F)cc2)cn1 [Example 13, 5-[3-(4-Fluoro-phenyl)-isoxazol-4-ylmethoxy]-pyrazine-2-carboxylic acid (2,2,2-trifluoro-ethyl)-amide] |
| 21 nM | O=C(NCC1CC1)c1cnc(OCc2conc2-c2ccc(F)cc2)cn1 [Example 14, 5-[3-(4-Fluoro-phenyl)-isoxazol-4-ylmethoxy]-pyrazine-2-carboxylic acid cyclopropylmethyl-amide] |
| 11 nM | CC(C)NC(=O)c1cnc(OCc2conc2-c2ccc(F)cc2)cn1 [Example 15, 5-[3-(4-Fluoro-phenyl)-isoxazol-4-ylmethoxy]-pyrazine-2-carboxylic acid isopropylamide] |
| 11.6 nM | CC(C)NC(=O)c1cnc(OCc2conc2-c2ccc(Cl)cc2)cn1 [Example 16, 5-[3-(4-Chloro-phenyl)-isoxazol-4-ylmethoxy]-pyrazine-2-carboxylic acid isopropylamide] |
| 32 nM | C[C@@H](CO)NC(=O)c1cnc(OCc2conc2-c2ccc(Cl)cc2)cn1 [Example 17, 5-[3-(4-Chloro-phenyl)-isoxazol-4-ylmethoxy]-pyrazine-2-carboxylic acid ((S)-2-hydroxy-1-methyl-ethyl)-amide] |
| 7.4 nM | C[C@H](CO)NC(=O)c1cnc(OCc2conc2-c2ccc(Cl)cc2)cn1 [Example 18, 5-[3-(4-Chloro-phenyl)-isoxazol-4-ylmethoxy]-pyrazine-2-carboxylic acid ((R)-2-hydroxy-1-methyl-ethyl)-amide] |
| 14.3 nM | O=C(NC1CCOCC1)c1cnc(OCc2conc2-c2ccccn2)cn1 [Example 19, 5-(3-Pyridin-2-yl-isoxazol-4-ylmethoxy)-pyrazine-2-carboxylic acid (tetrahydro-pyran-4-yl)-amide] |
| 9.6 nM | CC(C)NC(=O)c1cnc(OCc2conc2-c2ccccn2)cn1 [Example 20, 5-(3-Pyridin-2-yl-isoxazol-4-ylmethoxy)-pyrazine-2-carboxylic acid isopropylamide] |
| 13.7 nM | O=C(NC1CC1)c1cnc(OCc2conc2-c2ccccn2)cn1 [Example 21, 5-(3-Pyridin-2-yl-isoxazol-4-ylmethoxy)-pyrazine-2-carboxylic acid cyclopropylamide] |

| Compound | Ki |
| --- | --- |
| 5-[(5-Methyl-3-phenyl-isoxazol-4-ylmethyl)-amino]-pyrazine-2-carboxylic acid (tetrahydro-pyran-4-yl)-amide [Example 11] | 12.1 nM |
| 5-[(5-Methyl-3-phenyl-isoxazol-4-ylmethyl)-amino]-pyrazine-2-carboxylic acid cyclopropylamide [Example 10] | 10.4 nM |
